Experimental data: ChEMBL document CHEMBL4393743, “Anti-tumor activity evaluation of novel tubulin and HDAC dual-targeting inhibitors” (Bioorg Med Chem Lett, 2019)
The source made the active and inactive calls. The calls are words filed in the database; no cut-off is given here.

What was measured:
SGC-7901 = test: Antiproliferative activity against human SGC7901 cells assessed as cell growth inhibition incubated for 72 hrs by MTT assay; format: functional, cell-based; conditions: SGC-7901, 72 h
[1] = target: Histone deacetylase (Homo sapiens) (UniProt Q13547+O15379+Q9UBN7+Q92769+Q9UQL6+Q8WUI4+Q9BY41+Q96DB2+P56524+Q9UKV0+Q969S8); conditions: HeLa, at 1 µM
Description: Inhibition of HDAC in human HeLa cell nuclear extracts at 1 uM

A549 [2] = test: Antiproliferative activity against human A549 cells assessed as cell growth inhibition incubated for 72 hrs by MTT assay; format: functional, cell-based; conditions: A549, 72 h
HeLa = test: Antiproliferative activity against human HeLa cells assessed as cell growth inhibition incubated for 72 hrs by MTT assay; format: functional, cell-based
BGC-823 = test: Antiproliferative activity against human BGC823 cells assessed as cell growth inhibition incubated for 72 hrs by MTT assay; format: functional, cell-based; conditions: BGC-823, 72 h
Histone deacetylase = test: Inhibition of HDAC in human HeLA cell nuclear extracts; format: cell-based
HCT-116 = test: Antiproliferative activity against human HCT116 cells assessed as cell growth inhibition incubated for 72 hrs by MTT assay; format: functional, cell-based; conditions: HCT-116, 72 h
MCF7 = test: Antiproliferative activity against human MCF7 cells assessed as cell growth inhibition incubated for 72 hrs by MTT assay; format: functional, cell-based; conditions: MCF7, 72 h
[3] = target: T1, Protein deacetylase HDAC6 (Homo sapiens, UniProt Q9UBN7); test: Inhibition of HDAC6 (unknown origin) using Boc-Lys(Ac)-AMC as substrate incubated for 60 mins by fluorescence assay
T1 sequence (Q9UBN7 whole entry): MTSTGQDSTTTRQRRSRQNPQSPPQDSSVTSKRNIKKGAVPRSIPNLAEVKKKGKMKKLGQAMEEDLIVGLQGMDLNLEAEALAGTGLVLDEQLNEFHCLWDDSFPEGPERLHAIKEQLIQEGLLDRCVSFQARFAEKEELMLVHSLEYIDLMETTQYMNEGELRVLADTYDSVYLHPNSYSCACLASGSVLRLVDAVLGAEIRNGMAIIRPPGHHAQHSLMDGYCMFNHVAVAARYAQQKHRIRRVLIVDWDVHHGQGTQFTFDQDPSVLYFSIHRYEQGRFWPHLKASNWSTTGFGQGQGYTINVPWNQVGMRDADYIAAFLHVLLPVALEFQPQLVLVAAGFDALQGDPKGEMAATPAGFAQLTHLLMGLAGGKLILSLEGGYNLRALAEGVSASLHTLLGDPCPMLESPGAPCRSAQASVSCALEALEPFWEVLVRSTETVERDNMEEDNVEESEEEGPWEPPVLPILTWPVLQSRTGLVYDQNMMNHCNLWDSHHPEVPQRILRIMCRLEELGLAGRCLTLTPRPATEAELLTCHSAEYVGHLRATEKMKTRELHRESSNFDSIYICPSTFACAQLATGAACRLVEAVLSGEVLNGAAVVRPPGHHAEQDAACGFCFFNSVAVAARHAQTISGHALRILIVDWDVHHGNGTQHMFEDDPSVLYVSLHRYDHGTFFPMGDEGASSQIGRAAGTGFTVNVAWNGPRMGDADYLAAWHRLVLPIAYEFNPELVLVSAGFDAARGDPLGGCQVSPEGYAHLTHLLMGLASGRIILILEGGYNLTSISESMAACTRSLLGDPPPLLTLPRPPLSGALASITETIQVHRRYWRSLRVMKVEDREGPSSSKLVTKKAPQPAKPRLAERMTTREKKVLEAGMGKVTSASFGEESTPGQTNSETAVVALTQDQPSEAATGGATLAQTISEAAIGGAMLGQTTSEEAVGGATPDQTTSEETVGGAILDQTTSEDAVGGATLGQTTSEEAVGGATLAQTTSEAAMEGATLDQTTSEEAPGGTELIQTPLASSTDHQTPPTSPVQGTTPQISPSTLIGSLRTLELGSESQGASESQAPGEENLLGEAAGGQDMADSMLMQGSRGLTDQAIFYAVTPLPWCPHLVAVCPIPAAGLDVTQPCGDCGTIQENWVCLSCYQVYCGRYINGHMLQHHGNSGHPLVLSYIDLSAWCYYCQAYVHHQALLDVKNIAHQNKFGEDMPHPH

MGC-803 = test: Antiproliferative activity against human MGC803 cells assessed as cell growth inhibition incubated for 72 hrs by MTT assay; format: functional, cell-based; conditions: MGC-803, 72 h
MDA-MB-231 = test: Antiproliferative activity against human MDA-MB-231 cells assessed as cell growth inhibition incubated for 72 hrs by MTT assay; format: functional, cell-based; conditions: MDA-MB-231, 72 h
NCI-H460 = test: Antiproliferative activity against human NCI-H460 cells assessed as cell growth inhibition incubated for 72 hrs by MTT assay; format: functional, cell-based; conditions: NCI-H460, 72 h
Histone deacetylase 1 = Histone deacetylase 1 (Homo sapiens, UniProt Q13547); test: Inhibition of HDAC1 (unknown origin) using Boc-Lys(Ac)-AMC as substrate incubated for 60 mins by fluorescence assay
Tubulin = test: Inhibition of tubulin polymerization (unknown origin) by spectrophotometric method; format: protein-complex assay, Homo sapiens
Histone deacetylase 8 = target: T2, Histone deacetylase 8 (Homo sapiens, UniProt Q9BY41); test: Inhibition of HDAC8 (unknown origin) using Boc-Lys(Ac)-AMC as substrate incubated for 60 mins by fluorescence assay
T2 sequence (Q9BY41 whole entry): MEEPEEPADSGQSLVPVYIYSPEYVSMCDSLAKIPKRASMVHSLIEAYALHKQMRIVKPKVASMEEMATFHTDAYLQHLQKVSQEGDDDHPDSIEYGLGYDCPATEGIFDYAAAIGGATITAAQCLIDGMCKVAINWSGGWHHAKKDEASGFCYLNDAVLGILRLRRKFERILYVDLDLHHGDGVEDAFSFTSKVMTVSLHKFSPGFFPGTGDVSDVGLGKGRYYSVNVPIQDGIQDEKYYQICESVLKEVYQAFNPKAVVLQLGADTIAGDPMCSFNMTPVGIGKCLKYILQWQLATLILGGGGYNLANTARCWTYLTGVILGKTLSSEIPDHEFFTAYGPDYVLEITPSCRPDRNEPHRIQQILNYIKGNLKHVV

LoVo = test: Antiproliferative activity against human LoVo cells assessed as cell growth inhibition incubated for 72 hrs by MTT assay; format: functional, cell-based
NCI-H226 = test: Antiproliferative activity against human NCI-H226 cells assessed as cell growth inhibition incubated for 72 hrs by MTT assay; format: functional, cell-based; conditions: NCI-H226, 72 h
A549 [4] = test: Induction of cell cycle arrest in human A549 cells assessed as accumulation at S phase at 10 uM incubated for 36 hrs by propidium iodide staining based flow cytometry (reference value: 16.66%); format: functional
A549 [5] = test: Induction of cell cycle arrest in human A549 cells assessed as accumulation at G2/M phase at 10 uM incubated for 36 hrs by propidium iodide staining based flow cytometry (reference value: 10.83%); format: functional
A549 [6] = test: Induction of apoptosis in human A549 cells assessed as late apoptotic cells at 10 uM incubated for 72 hrs by Annexin V-FITC/propidium iodide-staining based flow cytometric analysis (reference value: 5.69%); format: functional
A549 [7] = test: Induction of apoptosis in human A549 cells assessed as early apoptotic cells at 10 uM incubated for 72 hrs by Annexin V-FITC/propidium iodide-staining based flow cytometric analysis (reference value: 1.8%); format: functional
A549 [8] = test: Induction of apoptosis in human A549 cells assessed as necrotic cells at 10 uM incubated for 72 hrs by Annexin V-FITC/propidium iodide-staining based flow cytometric analysis (reference value: 2.76%); format: functional
A549 [9] = test: Antimigratory activity in human A549 cells at 5 to 10 uM incubated for 12 hrs in presence of mitomycin by inverted microscopic-based wound healing assay; format: functional, cell-based
A549 [10] = test: Induction of apoptosis in human A549 cells assessed as live cells at 10 uM incubated for 72 hrs by Annexin V-FITC/propidium iodide-staining based flow cytometric analysis (reference value: 89.8%); format: functional
A549 [11] = test: Induction of cell cycle arrest in human A549 cells assessed as accumulation at G0/G1 phase at 10 uM incubated for 36 hrs by propidium iodide staining based flow cytometry (reference value: 72.51%); format: functional

Chain of Histone deacetylase 1 (Q13547 whole entry): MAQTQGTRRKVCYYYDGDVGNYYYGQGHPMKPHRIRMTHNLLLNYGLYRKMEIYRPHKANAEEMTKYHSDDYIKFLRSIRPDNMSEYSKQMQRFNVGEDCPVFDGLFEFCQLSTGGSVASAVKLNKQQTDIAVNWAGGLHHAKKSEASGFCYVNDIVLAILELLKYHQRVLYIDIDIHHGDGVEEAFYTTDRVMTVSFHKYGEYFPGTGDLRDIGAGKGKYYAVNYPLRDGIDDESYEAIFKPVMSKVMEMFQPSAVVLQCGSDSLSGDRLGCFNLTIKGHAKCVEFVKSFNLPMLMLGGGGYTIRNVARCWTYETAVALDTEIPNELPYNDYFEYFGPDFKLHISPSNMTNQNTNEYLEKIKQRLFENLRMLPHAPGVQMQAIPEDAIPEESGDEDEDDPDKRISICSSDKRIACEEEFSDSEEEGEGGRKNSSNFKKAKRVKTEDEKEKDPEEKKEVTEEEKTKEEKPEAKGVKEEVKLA

SMILES	IC50 (SGC-7901) [µM]	inhibition [1] [%]	IC50 (A549 [2]) [µM]	IC50 (HeLa) [µM]	IC50 (LoVo) [µM]	other results
COc1ccc(/C=C/C(=O)c2cc(OC)c(OC)c(OC)c2)cc1OCCCCCCCC(=O)NO	> 50	84.8	13.3	37.2		
COc1ccc(/C=C/C(=O)c2cc(OC)c(OC)c(OC)c2)cc1OCCCCCC(=O)NO	25.2	78.5	9.4	24.6		
COc1ccc(/C=C/C(=O)c2cc(OC)c(OC)c(OC)c2)cc1OCCCCC(=O)NO	> 50	32.9	14.3	25.9		
COc1ccc(/C=C/C(=O)c2cc(OC)c(OC)c(OC)c2)cc1OCCCC(=O)NO	17.4	21.8	12.2	13.3		
COc1ccc(/C=C/C(=O)c2cc(OC)c(OC)c(OC)c2)cc1OCCCCCCC(=O)NO	24.5	87.3	7.15	21.4	12.6	IC50 (BGC-823): 11.5 µM; IC50 (Histone deacetylase): 0.1326 µM; IC50 (HCT-116): 29.9 µM; IC50 (MCF7): 17.9 µM; IC50 [3]: 0.0046 µM; IC50 (MGC-803): 10.1 µM; IC50 (MDA-MB-231): 15.2 µM; IC50 (NCI-H460): 13.2 µM; IC50 (Histone deacetylase 1): 0.0363 µM; IC50 (Tubulin): 10.4 µM; IC50 (Histone deacetylase 8): 3.88 µM; IC50 (NCI-H226): 15.7 µM
COc1ccc(/C=C(\C)C(=O)c2cc(OC)c(OC)c(OC)c2)cc1O	2.06		1.51	> 50		
COc1ccc(/C=C(\C)C(=O)c2cc(OC)c(OC)c(OC)c2)cc1OCCCCCC(=O)NO	14	74.8	13.6	10.4		
COc1ccc(/C=C(\C)C(=O)c2cc(OC)c(OC)c(OC)c2)cc1OCCCCCCC(=O)NO	20	86	11.5	16.6		
O=C(CCCCCCC(=O)Nc1ccccc1)NO [VORINOSTAT]	1.03				2.15	Activity (A549 [4]): 39.53%; Activity (A549 [5]): 50.86%; Activity (A549 [6]): 24%; Activity (A549 [7]): 7.17%; Activity (A549 [8]): 8.58%; Activity (A549 [9]): Active; Activity (A549 [10]): 60.3%; Activity (A549 [11]): 9.61%
COc1ccc(/C=C(\C)C(=O)c2cc(OC)c(OC)c(OC)c2)cc1OCCCCC(=O)NO	13.9	35.4	1.45	3.15		
COc1ccc(/C=C(\C)C(=O)c2cc(OC)c(OC)c(OC)c2)cc1OCCCCCCCC(=O)NO	28.3	92.3	20	19.4	9.93	IC50 (BGC-823): 15.2 µM; IC50 (Histone deacetylase): 0.0715 µM; IC50 (HCT-116): 10.7 µM; IC50 (MCF7): 12 µM; IC50 [3]: 0.0136 µM; IC50 (MGC-803): 16.4 µM; IC50 (MDA-MB-231): 11.8 µM; IC50 (NCI-H460): 20.2 µM; IC50 (Histone deacetylase 1): 0.0152 µM; IC50 (Tubulin): 5 µM; IC50 (Histone deacetylase 8): 4.91 µM; IC50 (NCI-H226): 23.2 µM
COc1ccc(/C=C/C(=O)c2cc(OC)c(OC)c(OC)c2)cc1O	1.13		1.02	0.44	3.99	IC50 (BGC-823): 7.58 µM; IC50 (HCT-116): 2.85 µM; IC50 (MCF7): 8.6 µM; IC50 (MGC-803): 8.33 µM; IC50 (MDA-MB-231): 4.28 µM; IC50 (NCI-H460): 4.98 µM; IC50 (Tubulin): 4 µM; IC50 (NCI-H226): 4.38 µM
